As a reminder, the IC50 is the midpoint of a concentration-inhibition curve. One may read the logP as a log measure of how a compound divides between an organic and an aqueous phase. Read a high logP as higher lipophilicity.

In series [1] the target is T1, Aldehyde dehydrogenase, mitochondrial (Homo sapiens) (UniProt P05091).
T1 sequence (whole entry): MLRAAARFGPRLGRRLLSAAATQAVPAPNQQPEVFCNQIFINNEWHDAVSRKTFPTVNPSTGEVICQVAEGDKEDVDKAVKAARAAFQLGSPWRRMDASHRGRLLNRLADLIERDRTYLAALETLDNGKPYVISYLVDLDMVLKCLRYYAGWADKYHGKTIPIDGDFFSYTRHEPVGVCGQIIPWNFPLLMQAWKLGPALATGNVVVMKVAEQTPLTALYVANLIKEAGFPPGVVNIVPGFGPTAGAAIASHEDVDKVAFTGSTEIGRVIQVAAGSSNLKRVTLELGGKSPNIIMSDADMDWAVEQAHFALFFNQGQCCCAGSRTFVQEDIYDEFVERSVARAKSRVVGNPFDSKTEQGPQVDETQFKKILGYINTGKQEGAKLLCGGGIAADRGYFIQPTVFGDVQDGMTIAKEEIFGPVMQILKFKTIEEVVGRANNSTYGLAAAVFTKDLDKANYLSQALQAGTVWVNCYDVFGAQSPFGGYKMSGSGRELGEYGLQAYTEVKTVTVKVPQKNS
Description: Inhibition of full length recombinant human ALDH2 expressed in Escherichia coli assessed as remaining dehydrogenase activity by measuring NAD(P)H level at 10 uM preincubated for 2 mins followed by addition of propionaldehyde as substrate in presence of NAD+ by spectrophotometric method.

Series [2] has as its target T2, Aldehyde dehydrogenase, dimeric NADP-preferring (Homo sapiens, UniProt P30838).
T2 sequence (P30838 whole entry): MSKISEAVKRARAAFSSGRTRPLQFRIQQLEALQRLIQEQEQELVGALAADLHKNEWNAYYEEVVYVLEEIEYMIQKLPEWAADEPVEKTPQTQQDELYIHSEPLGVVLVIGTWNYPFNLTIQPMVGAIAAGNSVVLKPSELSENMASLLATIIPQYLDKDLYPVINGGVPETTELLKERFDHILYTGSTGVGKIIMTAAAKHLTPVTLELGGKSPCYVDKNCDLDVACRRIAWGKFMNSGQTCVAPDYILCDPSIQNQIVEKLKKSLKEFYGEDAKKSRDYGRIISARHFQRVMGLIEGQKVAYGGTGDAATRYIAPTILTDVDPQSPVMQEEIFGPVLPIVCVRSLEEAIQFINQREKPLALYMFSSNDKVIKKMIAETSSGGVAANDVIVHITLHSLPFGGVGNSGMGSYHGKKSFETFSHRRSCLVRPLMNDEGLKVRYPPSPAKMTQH
Briefly: Inhibition of full length recombinant human ALDH3A1 expressed in Escherichia coli BL21(DE3) assessed as reduction in dehydrogenase activity by measuring NAD(P)H level preincubated for 2 mins followed by addition of benzaldehyde as substrate in presence of NADP+ by spectrophotometric method.

The target of series [3] is T3, Aldehyde dehydrogenase 1A1 (Homo sapiens) (UniProt P00352).
T3 sequence (whole entry): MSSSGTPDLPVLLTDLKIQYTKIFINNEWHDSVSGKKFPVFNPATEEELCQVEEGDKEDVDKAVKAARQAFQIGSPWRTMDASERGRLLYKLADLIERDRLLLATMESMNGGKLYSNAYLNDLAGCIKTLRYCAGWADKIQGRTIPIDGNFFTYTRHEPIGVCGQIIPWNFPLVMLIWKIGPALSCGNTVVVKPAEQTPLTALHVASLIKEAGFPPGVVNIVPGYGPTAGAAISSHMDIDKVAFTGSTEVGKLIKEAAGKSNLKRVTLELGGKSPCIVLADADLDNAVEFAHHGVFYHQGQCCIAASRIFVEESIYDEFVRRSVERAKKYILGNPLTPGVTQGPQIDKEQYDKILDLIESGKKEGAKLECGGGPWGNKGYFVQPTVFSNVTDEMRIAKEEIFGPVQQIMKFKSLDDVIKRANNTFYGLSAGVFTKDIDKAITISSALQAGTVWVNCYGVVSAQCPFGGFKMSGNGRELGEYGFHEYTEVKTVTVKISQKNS
Briefly: Inhibition of full length recombinant human ALDH1A1 expressed in Escherichia coli BL21(DE3) assessed as remaining dehydrogenase activity by measuring NAD(P)H level at 10 uM preincubated for 2 mins followed by addition of propionaldehyde as substrate in presence of NAD+ by spectrophotometric method.

Series [4] deals with T4, Aldehyde dehydrogenase, mitochondrial (Homo sapiens, UniProt P05091).
T4 sequence (P05091 whole entry): T1 sequence (whole entry)
Description: Inhibition of full length recombinant human ALDH2 expressed in Escherichia coli assessed as reduction in dehydrogenase activity by measuring NAD(P)H level preincubated for 2 mins followed by addition of propionaldehyde as substrate in presence of NAD+ by spectrophotometric method

Series [5] addresses T5, Aldehyde dehydrogenase, dimeric NADP-preferring (Homo sapiens) (UniProt P30838).
T5 sequence (whole entry): T2 sequence (P30838 whole entry)
Briefly: Inhibition of full length recombinant human ALDH3A1 expressed in Escherichia coli BL21(DE3) assessed as remaining dehydrogenase activity by measuring NAD(P)H level at 10 uM preincubated for 2 mins followed by addition of propionaldehyde as substrate in presence of NAD+ by spectrophotometric method.

Series [6] in a line: Lipophilicity, log P of the compound. To be noted: octanol/water. Type of series: physicochemical.
Series [7] has as its target T6, Retinal dehydrogenase 2 (Homo sapiens, UniProt O94788).
T6 sequence (O94788 whole entry): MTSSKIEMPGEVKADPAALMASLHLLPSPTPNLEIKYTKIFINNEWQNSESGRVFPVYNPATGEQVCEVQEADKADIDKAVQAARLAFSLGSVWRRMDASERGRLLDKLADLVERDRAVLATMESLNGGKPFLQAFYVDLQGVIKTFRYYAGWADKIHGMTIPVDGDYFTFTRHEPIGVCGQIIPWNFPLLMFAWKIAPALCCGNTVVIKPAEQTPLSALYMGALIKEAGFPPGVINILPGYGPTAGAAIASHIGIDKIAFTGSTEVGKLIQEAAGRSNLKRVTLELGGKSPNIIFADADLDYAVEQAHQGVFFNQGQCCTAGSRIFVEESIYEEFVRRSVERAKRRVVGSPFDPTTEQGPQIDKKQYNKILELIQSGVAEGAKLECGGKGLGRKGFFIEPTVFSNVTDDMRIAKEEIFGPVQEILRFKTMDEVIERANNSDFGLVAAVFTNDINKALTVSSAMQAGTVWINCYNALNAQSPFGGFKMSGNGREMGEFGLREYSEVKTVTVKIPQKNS
Description: Inhibition of full length recombinant human ALDH1A2 expressed in Escherichia coli BL21(DE3) assessed as reduction in dehydrogenase activity by measuring NAD(P)H level preincubated for 2 mins followed by addition of propionaldehyde as substrate in presence of NAD+ by spectrophotometric method

With `C/C(=N\O)c1cc2cc(Br)ccc2oc1=O`, the Activity in series [1] came out at 48.2%; in series [3], 96%; in series [5] it was 91.7%. Besides, the concentration for half-maximal inhibition (IC50) entry in series [2] is “Not Active”; in series [4] it was 4600 nM. Moreover, in series [6], the logP amounted to 2.1.
Regarding `Cc1oc2cc3oc(=O)c(CCC(=O)N4CCCCC4)c(C)c3cc2c1C`, the Activity was found to be 3.8% in series [1], 8.69% in series [3] and 105% in series [5]. In addition, the half-maximal inhibitory concentration (IC50) entry was “Not Active” in series [2], 1600 nM in series [7] and 2000 nM in series [4]. The compound further gave a logP in series [6] of 4.06.
With `Cc1oc2cc3oc(=O)c4c(c3cc2c1C)CCC4`, the Activity in series [1] amounted to 8.25%; in series [3], 50.8%; in series [5] it was 87.1%. Also, the concentration for half-maximal inhibition (IC50) entry in series [2] is “Not Active”; in series [7] it was 130 nM; in series [4], 67 nM. Moreover, the logP in series [6] was found to be 4.26.
For `CCCc1c(C)c2cc3c(C)coc3cc2oc1=O`, the Activity in series [1] turned out to be 6.25%; in series [3], 48.6%; in series [5], 96.1%. The IC50 entry is “Not Active” in series [2], 760 nM in series [7] and 340 nM in series [4]. The same compound returned a logP in series [6] of 4.47.
Consider `Cc1oc2cc3oc(=O)c(C)c(C)c3cc2c1C`, for which the Activity in series [1] stood at 19.5%; in series [3] it was 90.5%; in series [5], 95.3%. In addition, the IC50 result was “Not Active” in series [2] and 330 nM in series [7]. This compound also displayed a logP in series [6] of 4.39.
For the compound `COC(=O)C(C)Oc1ccc2c(C)cc(=O)oc2c1` (centres undefined), the Activity turned out to be 5.72% in series [1] and 84.8% in series [3]. The half-inhibitory concentration (IC50) entry in series [2] is “Not Active”; in series [4], 1500 nM. The compound further displayed a logP in series [6] of 1.9.
Regarding `CCCc1c(C)c2cc3c(C)c(C)oc3cc2oc1=O`, the Activity was found to be 1.61% in series [1], 36.3% in series [3] and 86.3% in series [5]. Moreover, the concentration for half-maximal inhibition (IC50) entry is “Not Active” in series [2], 300 nM in series [7] and 110 nM in series [4]. For the same compound, the lipophilicity (logP) in series [6] worked out at 4.92.
As for `CCCc1cc(=O)oc2cc3oc(C)c(C)c3cc12`, the Activity in series [1] amounted to 23.8%; in series [3] it was 74.1%; in series [5], 80.4%. Further, the results for the IC50 result in series [2], in series [7] and in series [4] were “Not Active”, 69 nM and 360 nM, respectively. Besides, the logP in series [6] is 4.47.
`Cc1oc2cc3oc(=O)c4c(c3cc2c1C)CCCC4`: the figures for the Activity in series [1], in series [3] and in series [5] were 16.3%, 56.3% and 94.1%, respectively. Moreover, the IC50 entry in series [2] is “Not Active”; in series [7], 65 nM; in series [4], 67 nM. This compound also returned a lipophilicity (logP) in series [6] of 4.27.

Source of the values: ChEMBL document CHEMBL4007427, “Inhibition of the Aldehyde Dehydrogenase 1/2 Family by Psoralen and Coumarin Derivatives” (J Med Chem, 2017).
